From patent publication US9932314B2, “Pyrazole compounds and their use as T-type calcium channel blockers” (IDORSIA PHARMACEUTICALS LTD, priority 2015, dated 2018)

The molecules below were run against T1, voltage-dependent T-type calcium channel subunit alpha-1G (Cav3.2) (Homo sapiens, UniProt O95180) (assay: FLIPR calcium flux assay, HEK293 cells recombinantly expressing Cav3.2). Conditions: Cav3.2-channel, Fluo-4-AM, 3 min incubation, stimulation with 10 mM CaCl2.
T1 construct: expressed in transfected cells; host or cells: HEK293
T1 sequence (O95180 whole entry): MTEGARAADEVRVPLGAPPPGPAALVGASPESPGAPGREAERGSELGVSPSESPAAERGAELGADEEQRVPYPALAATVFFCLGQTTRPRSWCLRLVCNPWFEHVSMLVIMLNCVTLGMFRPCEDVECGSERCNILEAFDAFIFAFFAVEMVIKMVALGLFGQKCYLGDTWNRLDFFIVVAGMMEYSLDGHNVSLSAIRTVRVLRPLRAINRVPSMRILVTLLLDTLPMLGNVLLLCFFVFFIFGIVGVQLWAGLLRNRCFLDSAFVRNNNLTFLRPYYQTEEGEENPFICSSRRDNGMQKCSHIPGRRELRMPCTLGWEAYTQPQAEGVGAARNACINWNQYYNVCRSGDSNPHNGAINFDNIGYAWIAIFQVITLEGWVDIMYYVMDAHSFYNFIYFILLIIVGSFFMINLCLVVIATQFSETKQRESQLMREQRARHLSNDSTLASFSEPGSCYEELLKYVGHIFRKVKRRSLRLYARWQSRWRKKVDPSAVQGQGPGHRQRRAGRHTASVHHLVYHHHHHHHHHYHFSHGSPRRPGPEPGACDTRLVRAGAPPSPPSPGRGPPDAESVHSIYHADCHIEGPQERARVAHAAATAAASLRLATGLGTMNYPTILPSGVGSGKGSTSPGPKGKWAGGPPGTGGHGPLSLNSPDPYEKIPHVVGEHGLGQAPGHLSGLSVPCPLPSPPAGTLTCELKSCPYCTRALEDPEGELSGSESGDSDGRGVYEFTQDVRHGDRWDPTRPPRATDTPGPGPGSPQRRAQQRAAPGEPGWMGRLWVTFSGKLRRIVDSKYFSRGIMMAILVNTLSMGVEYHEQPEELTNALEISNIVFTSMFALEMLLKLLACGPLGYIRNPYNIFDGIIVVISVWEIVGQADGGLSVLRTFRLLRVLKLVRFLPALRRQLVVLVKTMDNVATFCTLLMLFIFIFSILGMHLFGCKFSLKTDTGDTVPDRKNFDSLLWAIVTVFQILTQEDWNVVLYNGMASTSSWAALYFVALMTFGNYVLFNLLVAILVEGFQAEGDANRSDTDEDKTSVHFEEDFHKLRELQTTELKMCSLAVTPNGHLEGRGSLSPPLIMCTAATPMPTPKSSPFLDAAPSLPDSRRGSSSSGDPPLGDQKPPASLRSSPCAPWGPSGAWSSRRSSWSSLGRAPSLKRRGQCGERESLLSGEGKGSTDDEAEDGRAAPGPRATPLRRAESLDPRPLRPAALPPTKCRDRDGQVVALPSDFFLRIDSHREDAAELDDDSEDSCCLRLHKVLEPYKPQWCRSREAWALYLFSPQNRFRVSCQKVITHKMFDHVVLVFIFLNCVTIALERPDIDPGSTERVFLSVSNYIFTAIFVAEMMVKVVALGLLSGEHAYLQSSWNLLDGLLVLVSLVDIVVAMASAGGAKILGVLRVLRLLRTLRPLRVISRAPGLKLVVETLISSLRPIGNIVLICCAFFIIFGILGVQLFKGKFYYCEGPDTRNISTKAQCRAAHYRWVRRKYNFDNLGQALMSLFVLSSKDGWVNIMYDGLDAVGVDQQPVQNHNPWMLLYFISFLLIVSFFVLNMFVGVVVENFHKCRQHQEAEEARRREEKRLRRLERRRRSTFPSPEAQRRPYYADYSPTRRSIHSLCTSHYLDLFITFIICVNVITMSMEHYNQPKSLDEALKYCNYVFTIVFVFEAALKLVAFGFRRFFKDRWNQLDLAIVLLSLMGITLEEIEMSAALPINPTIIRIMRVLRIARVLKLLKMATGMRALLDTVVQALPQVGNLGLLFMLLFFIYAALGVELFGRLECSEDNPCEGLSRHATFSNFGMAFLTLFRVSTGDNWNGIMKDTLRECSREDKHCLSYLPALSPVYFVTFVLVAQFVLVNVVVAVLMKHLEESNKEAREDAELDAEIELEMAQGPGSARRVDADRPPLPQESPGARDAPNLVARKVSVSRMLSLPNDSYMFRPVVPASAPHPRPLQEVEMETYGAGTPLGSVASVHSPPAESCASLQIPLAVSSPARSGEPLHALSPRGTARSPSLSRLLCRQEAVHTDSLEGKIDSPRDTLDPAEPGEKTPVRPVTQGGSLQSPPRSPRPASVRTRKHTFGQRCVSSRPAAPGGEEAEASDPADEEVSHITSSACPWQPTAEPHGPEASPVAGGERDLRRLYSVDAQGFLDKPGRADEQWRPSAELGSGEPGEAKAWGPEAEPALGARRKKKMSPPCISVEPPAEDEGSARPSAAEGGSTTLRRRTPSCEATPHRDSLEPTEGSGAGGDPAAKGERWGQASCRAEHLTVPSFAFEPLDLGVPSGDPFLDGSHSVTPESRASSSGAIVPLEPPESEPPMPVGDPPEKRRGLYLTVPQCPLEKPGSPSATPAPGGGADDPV
Format: cell-based
How it was run: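 HEK293 cells stably expressing human Cav3.2 were loaded with Fluo-4-AM. Compounds diluted in TEAC buffer (pH 7.2) were preincubated for 3 min, then Ca2+ entry was triggered by 10 mM final CaCl2. Inhibition curves were fitted sigmoidally to the area under the fluorescence trace.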

Row | Compound | IC50 [nM]
1 | CCN(CC)c1ccc(CC(=O)Nc2ccn(Cc3ccc(C#N)cc3)n2)cc1 [Example 114, N-[1-(4-Cyano-benzyl)-1H-pyrazol-3-yl]-2-(4-diethylamino-phenyl)-acetamide] | 14
2 | N#Cc1ccc(Cn2ccc(NC(=O)Cc3ccc(C4CC4)cc3)n2)nc1 [Example 78, N-[1-(5-Cyano-pyridin-2-ylmethyl)-1H-pyrazol-3-yl]-2-(4-cyclopropyl-phenyl)-acetamide] | 275
3 | O=C(Cc1ccc(N2CCC(F)(F)C2)cc1)Nc1ccn(Cc2ccc(F)cc2)n1 [Example 77, 2-[4-(3,3-Difluoro-pyrrolidin-1-yl)-phenyl]-N-[1-(4-fluoro-benzyl)-1H-pyrazol-3-yl]-acetamide] | 9.1
4 | N#Cc1ccc(Cn2ccc(NC(=O)Cc3ccc(OCC4(F)COC4)cc3)n2)cc1F [Example 257, N-[1-(4-Cyano-3-fluoro-benzyl)-1H-pyrazol-3-yl]-2-[4-(3-fluoro-oxetan-3-ylmethoxy)-phenyl]-acetamide] | 76
5 | N#Cc1ccc(Cn2ccc(NC(=O)Cc3ccc(OC4CCC4)cc3)n2)nc1 [Example 196, N-[1-(5-Cyano-pyridin-2-ylmethyl)-1H-pyrazol-3-yl]-2-(4-cyclobutoxy-phenyl)-acetamide] | 176
6 | O=C(Cc1ccc(N2CC(F)C2)nc1)Nc1ccn(Cc2ccc(F)cc2)n1 [Example 162, 2-[6-(3-Fluoro-azetidin-1-yl)-pyridin-3-yl]-N-[1-(4-fluoro-benzyl)-1H-pyrazol-3-yl]-acetamide] | 64
7 | CCN(C)c1ccc(CC(=O)Nc2ccn(Cc3ccc(F)c(F)c3)n2)cc1 [Example 130, N-[1-(3,4-Difluoro-benzyl)-1H-pyrazol-3-yl]-2-[4-(ethyl-methyl-amino)-phenyl]-acetamide] | 293
8 | Cn1ncc2ccc(CC(=O)Nc3ccn(Cc4ccc(F)c(C#N)c4)n3)cc21 [Example 308, N-[1-(3-Cyano-4-fluoro-benzyl)-1H-pyrazol-3-yl]-2-(1-methyl-1H-indazol-6-yl)-acetamide] | 263
9 | O=C(Cc1ccc(N2CCC2)cc1)Nc1ccn(Cc2ccc(F)c(F)c2)n1 [Example 60, 2-(4-Azetidin-1-yl-phenyl)-N-[1-(3,4-difluoro-benzyl)-1H-pyrazol-3-yl]-acetamide] | 4.7
10 | N#Cc1ccc(Cn2ccc(NC(=O)Cc3ccc(OCC4CC(F)(F)C4)cc3)n2)cc1F [Example 289, N-[1-(4-Cyano-3-fluoro-benzyl)-1H-pyrazol-3-yl]-2-[4-(3,3-difluoro-cyclobutylmethoxy)-phenyl]-acetamide] | 23
11 | O=C(Cc1ccc(N2CC[C@H](F)C2)cc1)Nc1ccn(Cc2ccc(F)c(F)c2)n1 [Example 61, N-[1-(3,4-Difluoro-benzyl)-1H-pyrazol-3-yl]-2-[4-((S)-3-fluoro-pyrrolidin-1-yl)-phenyl]-acetamide] | 3.4
12 | COCCN(C)c1ccc(CC(=O)Nc2ccn(Cc3ccc(F)c(F)c3)n2)cc1 [Example 126] | 3.4
13 | CN(c1ccc(CC(=O)Nc2ccn(Cc3ccc(F)c(F)c3)n2)cn1)C1CC1 [Example 165, 2-[6-(Cyclopropyl(methyl)amino)-pyridin-3-yl]-N-[1-(3,4-difluoro-benzyl)-1H-pyrazol-3-yl]-acetamide] | 13
14 | N#Cc1cc(Cn2ccc(NC(=O)Cc3ccc(OCC4COC4)cc3)n2)ccc1F [Example 279, N-[1-(3-Cyano-4-fluoro-benzyl)-1H-pyrazol-3-yl]-2-[4-(oxetan-3-ylmethoxy)-phenyl]-acetamide] | 275
15 | CC(C)c1ccc(CC(=O)Nc2ccn(Cc3ccc(C#N)c(Cl)n3)n2)cc1 [Example 110, N-[1-(6-Chloro-5-cyano-pyridin-2-ylmethyl)-1H-pyrazol-3-yl]-2-(4-isopropyl-phenyl)-acetamide] | 14
16 | CC(C)c1ccc(CC(=O)Nc2ccn(Cc3cc(Cl)c(C#N)cn3)n2)cc1 [Example 157, N-[1-(4-Chloro-5-cyano-pyridin-2-ylmethyl)-1H-pyrazol-3-yl]-2-(4-isopropyl-phenyl)-acetamide] | 34
